Results taken from patent US8795707B2, “Compliant composites for application of drug-eluting coatings to tissue surfaces” (Trustees of Boston University, priority 2008, dated 2014).

Key:
[1] = Release of 10-hydroxycamptothecin from polymer-collagen composites; format: physicochemical; conditions: PBS at 37° C.
Experimental: Using the procedures from Example 2, a composite was constructed from a collagen-based scaffold with a poly(caprolactone) barrier layer and two 10-hydroxycaptothecin-loaded (2% w/w) poly(glycerol monostearate) layers. The composites were submerged in 0.150 mL of PBS at 37° C. At specific time points, an aliquot of release media was removed and the concentration of HCPT was measured by fluorescence spectroscopy (λEx=382 nm and λEm=550 nm, Photon Technology International QM-4/2005 spectrofluorimeter). A calibration curve was constructed from nine samples of known HCPT concentrations with linearity observed from 10 nM to 5 μM (R^2=0.999) from which the drug concentration of each aliquot was determined. After the completion of release, the HCPT remaining in each film was quantified. Films were dissolved CH2Cl2 to release encapsulated drug, the solvent evaporated, and PBS (150 mL) was added under rigorous stirring. The fluorescence spectrum was recorded and remaining drug measured.

tumor = conditions: pouch sutured subcutaneously, loaded three days after tumor inoculation; 30 day observation period; cited from earlier work
[2] = test system: 4T1 metastatic mammary mouse tumor cells; conditions: implants co-implanted with 4T1 cells; cited from earlier work

With `CC[C@@]1(O)C(=O)OCc2c1cc1n(c2=O)Cc2cc3cc(O)ccc3nc2-1` [10-hydroxycamptothecin] the “HCPT released over the first 24 hours” value ([1]; collagen scaffold, poly(caprolactone) barrier, two 2% w/w HCPT layers) was “about 10%”, the “HCPT release rate after the first five weeks” value ([1]; same composite) was 0.5 % release per day and the “HCPT release rate, first two weeks” value ([1]; same composite) was 2 % loading per day. The “HCPT release rate, following three weeks” value ([1]; same composite) was “approximately 1 % per day” and the “duration of continued release detected” value ([1]; same composite) was “at least 6 weeks”.
For `Nc1ccn([C@@H]2O[C@H](CO)[C@@H](O)C2(F)F)c(=O)n1` [gemcitabine], the “mice with no observable tumor mass” value (tumor) is given as “Four of six”.
For `CC(C)CCCC(C)C1CCC2C3CC(C[131I])C4=C(CCC(O)C4)C3CCC12C` (stereo not shown) [^131I-norcholesterol], the “mice in which tumor growth was prevented” value [2] is listed as 69%.
